Laboratory results from patent US20140369933A1, “FLUORINE-18 LABELED HYDROGEN ION PROBES” (The Trustees of The University of Pennsylvania, priority 2011, published 2014).
Like-named read-outs stand apart in the source and are kept apart here.

Legend:
[1] = pKa of the indicators by UV-VIS spectroscopy from pH dependence of absorption of basic forms
Procedure: (§1) The values of pKa of the indicators were determined by UV-VIS spectroscopy from the pH dependence of absorption of their basic forms and other spectroscopic investigations of the products were performed by Beckman-Coulter DU 530 spectrophotometer using acetate, phosphate, TRIZMA, and borate buffers for different values of pH. The number of fluorine atoms in the molecule was also determined by comparison of the ratio of sample activity to absorption of the basic forms of indicators.

[2] = UV-VIS absorption maxima of indicator forms; type: physicochemical; conditions: for absorption maximum of basic form: basic form of indicator; for absorption maximum of acidic form: acidic form of indicator
Procedure: as §1

[3] = parental compound, intravenous injection, renal excretion; cited from earlier work
[4] = UV-VIS, pH dependence of absorption of basic form, acetate, phosphate, TRIZMA, borate buffers

Compound	pKa [1, 4]	absorption maximum of basic form [2] [nm]	pKa [1]	absorption maximum of acidic form [2] [nm]	half-life, mostly renal clearance [3] [min]
O=S1(=O)OC(c2ccc(O)c([18F])c2)(c2ccc(O)c([18F])c2)c2ccccc21 [DFPR, difluorophenol red]		570	6.4	428	
Cc1c(C2(c3cc(C(C)C)c(O)c([18F])c3C)OS(=O)(=O)c3ccccc32)cc(C(C)C)c(O)c1[18F] [DFTB, difluorothymolsulfonphthalein]		605	7.65		
Cc1cc(C2(c3cc(C)c(O)c([18F])c3)OS(=O)(=O)c3ccccc32)ccc1O (stereo not drawn) [MFCR, MonoFluoroCresol Red]		576	7.6		
O=S1(=O)OC(c2ccc(O)cc2)(c2ccc(O)c([18F])c2)c2ccccc21 (stereo not drawn) [MFPR, monofluorophenol red]		564	7.3	436	
Cc1cc(O)c(C(C)C)cc1C1(c2cc(C(C)C)c(O)c([18F])c2C)OS(=O)(=O)c2ccccc21 (stereo not drawn) [MFTB, MonoFluoro Thymol Blue]		599	8.25		
O=S1(=O)OC(c2ccc(O)cc2)(c2ccc(O)cc2)c2ccccc21 [Phenol Red, phenolsulfonphthalein, reference compound]		558	7.9	433	20 to 30
Cc1cc(O)c([18F])cc1C1(c2cc([18F])c(O)c([18F])c2C)OS(=O)(=O)c2ccccc21 (stereo not drawn) [TFCP, trifluorocresolsulfonphthalein]		592	6.4		
Cc1cc(O)c(C(C)C)cc1C1(c2cc(C(C)C)c(O)cc2C)OS(=O)(=O)c2ccccc21 [Thymol Blue, thymolsulfonphthalein, reference compound]	8.85	597			
O=C1OC(c2ccc(O)c3ccccc23)(c2ccc(O)c3ccccc23)c2ccccc21 [naphtholphthalein, reference compound]		653	7.95		
difluorocresolsulfonphthalein [DFCP]		589			
monofluorocresolsulfonphthalein [MFCP]		582			
monofluoronaphtholphthalein	7.7	660			
trifluorophenol red [TFPR]		572			

Second part, led by results:

pKa [1, 4]	absorption maximum of basic form [2] [nm]	pKa [1]	absorption maximum of acidic form [2] [nm]	Compound	half-life, mostly renal clearance [3] [min]
8.3				Cc1cc(O)ccc1C1(c2ccc(O)cc2C)OS(=O)(=O)c2ccccc21 [CP, cresolsulfonphthalein, reference compound]	
8.2	572			Cc1cc(C2(c3ccc(O)c(C)c3)OS(=O)(=O)c3ccccc32)ccc1O [Cresol Red, ortho-cresolsulfonphthalein, reference compound]	
	582	6.8		Cc1cc(C2(c3cc(C)c(O)c([18F])c3)OS(=O)(=O)c3ccccc32)cc([18F])c1O [DFCR, DiFluoroCresol Red]	
	572	5.9		O=S1(=O)OC(c2ccc(O)c([18F])c2)(c2cc([18F])c(O)c([18F])c2)c2ccccc21 (stereo not drawn) [TFPR, trifluorophenol red]	
	668	7.2		O=C1OC(c2cc([18F])c(O)c3ccccc23)(c2cc([18F])c(O)c3ccccc23)c2ccccc21 [difluoronaphtholphthalein]	
	564	8.7		O=C1OC(c2ccc(O)c([18F])c2)(c2ccc(O)c([18F])c2)c2ccccc21 [difluorophenolphthalein]	
	558	9.3		O=C1OC(c2ccc(O)cc2)(c2ccc(O)c([18F])c2)c2ccccc21 (stereo not drawn) [monofluorophenolphthalein]	
	553	9.75		O=C1OC(c2ccc(O)cc2)(c2ccc(O)cc2)c2ccccc21 [phenolphthalein, reference compound]	
